# Data taken from patent publication US20110177105A1, “Novel Selective Inhibitors of Ubiquitin Specific Protease 7, the Pharmaceutical Compositions Thereof and Their Therapeutic Applications” (priority 2010, published 2011).
# Target: USP7 (Homo sapiens, UniProt Q93009)
# Experiment: HA-Ub-VS labeling of active DUBs in HCT116 cell lysates
# Type: biochemical
# Parameters: endogenous in cells; host or cells: HCT116 (inducible USP7 shRNA line) cell lysate
# Details: NEM 5 mM
# Excerpt: The C-terminally modified vinyl sulfone derivative of ubiquitin, UbVS, was clearly helpful for a direct visualization of active DUBs in cells. This tool, which binds covalently to the cysteine active site of deubiquitinating enzymes, was successfully applied to discover and characterize novel ubiquitin/ubiquitin-like proteases and to profile active deubiquitinating enzymes in normal, virus-infected, and malignant cells (Borodovsky et al., Chem Biol 2002, 9, 1149-1159, Hemelaar et al., Mol Cell Biol 2004, 24, 84-95, Ovaa et al., Proc Natl Acad Sci USA 2004 101, 2253-2258).
# The HA-Ub-VS probe (Hemagglutin tag-Ubiquitin-Vinyl Sulfone) was used in this study to directly visualize the activity of all deubiquitinating enzymes from cell lysates. This tool was used to evaluate the activity/specificity of our small molecule compounds on USP7 relative to all deubiquitinating enzymes active in physiological conditions.
# Inducible USP7 shRNA HCT116 cells (previously treated with or without Doxycycline (2 μg/ml) for 4 days) as well as HEK293 cells were harvested and lysed on ice with a non denaturating buffer containing Tris pH 7.4, 50 mM; NaCl, 150 mM; MgCl2, 5 mM; EDTA, 0.5 mM; DTT, 2 mM; ATP, 2 mM; NP40, 0.5% and glycerol, 10%. Samples were incubated at 4° C. for 1 hour and clarified. Proteins were then quantified by Bradford method (Bio-Rad Protein Assay). 25 μg of proteins from native cell lysates were treated with compounds of examples 14 and 5 (from 100 μM to 3 μM) or with NEM (N-Ethylmaleimide, a thiol-reactive compound, 5 mM) for 2 hours at room temperature. The ubiquitin labeling reaction was initiated by the addition of HA-Ub-VS (8 μg/ml) in labeling buffer (Tris pH 7.6, 50 mM; MgCl2, 5 mM; EDTA, 0.5 mM; DTT, 2 mM; ATP, 2 mM; sucrose, 250 mM) and incubated at room temperature for 30 min. Samples were next heated at 100° C. for 10 minutes and briefly sonicated. They were resolved by SDS-polyacrylamide gel electrophoresis (SDS-PAGE), transferred to a nitrocellulose membrane and probed with antibodies against USP7 (Bethyl Lab, A300-034A), HA (BabCO, MMS-101P), and actin (Sigma, A2066). Horseradish peroxidase (HRP)-conjugated anti-mouse (Jackson Laboratories, 115-035-003) or HRP-conjugated anti-rabbit (Cell Signaling, 7074) antibodies were used as secondary antibodies. Signals were detected by enhanced chemiluminescence (ECL; Amersham) according to the reagent manufacturer's instructions.
# Chain of USP7 (Q93009 whole entry): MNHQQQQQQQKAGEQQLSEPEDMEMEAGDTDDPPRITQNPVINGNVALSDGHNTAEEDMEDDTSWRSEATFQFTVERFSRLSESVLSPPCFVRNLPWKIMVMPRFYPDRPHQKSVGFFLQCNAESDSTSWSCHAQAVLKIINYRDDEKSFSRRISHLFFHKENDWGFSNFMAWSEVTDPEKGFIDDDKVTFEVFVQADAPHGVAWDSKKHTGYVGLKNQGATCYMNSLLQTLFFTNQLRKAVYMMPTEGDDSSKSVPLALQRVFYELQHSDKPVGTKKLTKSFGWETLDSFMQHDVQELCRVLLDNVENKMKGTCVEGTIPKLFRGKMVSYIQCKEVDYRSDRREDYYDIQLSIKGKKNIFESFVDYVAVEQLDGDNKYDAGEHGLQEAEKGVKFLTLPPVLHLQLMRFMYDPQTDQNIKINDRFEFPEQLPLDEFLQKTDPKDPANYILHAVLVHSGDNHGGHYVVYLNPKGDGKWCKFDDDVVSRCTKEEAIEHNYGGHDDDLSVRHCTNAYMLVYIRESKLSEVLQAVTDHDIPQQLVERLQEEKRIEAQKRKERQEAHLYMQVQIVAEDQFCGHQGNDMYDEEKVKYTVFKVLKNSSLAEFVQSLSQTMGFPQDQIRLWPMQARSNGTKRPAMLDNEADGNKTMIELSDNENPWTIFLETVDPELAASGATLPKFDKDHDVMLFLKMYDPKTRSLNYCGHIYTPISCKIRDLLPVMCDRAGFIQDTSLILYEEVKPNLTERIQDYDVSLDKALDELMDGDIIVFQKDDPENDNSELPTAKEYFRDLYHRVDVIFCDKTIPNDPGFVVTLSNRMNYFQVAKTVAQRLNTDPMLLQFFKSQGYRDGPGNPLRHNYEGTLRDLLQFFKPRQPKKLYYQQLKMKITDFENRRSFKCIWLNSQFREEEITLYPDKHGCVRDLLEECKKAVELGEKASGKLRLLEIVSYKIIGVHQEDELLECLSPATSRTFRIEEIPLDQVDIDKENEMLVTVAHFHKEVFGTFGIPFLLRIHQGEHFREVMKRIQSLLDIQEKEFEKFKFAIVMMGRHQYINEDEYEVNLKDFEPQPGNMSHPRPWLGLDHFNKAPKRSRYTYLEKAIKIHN
smiles,measurement,value
"CCN1C(=O)C=CC1=O [NEM, N-Ethylmaleimide, reference compound]",HA-Ub-VS labeling of active DUBs,inhibited
